# Measured values taken from patent US5262421A, “Use of dicentrine and its derivatives for the treatment of hypertension, arrhythmia, thrombosis and atherosclerosis” (National Science Council, priority 1991, dated 1993).
# Entries after “also recorded” stand apart in the source; their conditions may differ.
# Assays:
# guinea-pig trachea = assay: Contraction and relaxation of guinea-pig trachea; details: in words
# [1] = system: α1-adrenoceptor (rat thoracic aortae); assay: Schild analysis of α1-adrenoceptor antagonism: norepinephrine- and phenylephrine-induced contraction of rat thoracic aortae
# Description: Results are given as means ± S.E.M. or the mean with 95% confidence
# [2] = system: membrane currents of rat ventricular cells; assay: Voltage clamp, membrane currents in rat ventricular cells; type: cell-based
# Description: (§1) In rat ventricular cells, the effects of dicentrine on action potential and membrane current were studied. […] However, calcium current was less affected.
# rat thoracic aorta = assay: Aortic contraction induced by other agonists; details: in words
# washed rabbit platelets = assay: Aggregation of washed rabbit platelets induced by arachidonic acid, collagen, thrombin, ADP or PAF; type: cell-based; details: for Aggregation (%): dicentrine 150 μM
# Description: These fractions inhibited the aggregation of washed rabbit platelets induced by ADP, collagen, arachidonic acid and platelet-activating factor (PAF). […] Furthermore, the action potential of rat ventricular cells was prolonged by these fractions. After rechromatography on a silica gel column with n-hexane-ethylacetate (2:1), four potent compounds, dicentrine, N-methylnandigerine, N-methylovigenine and dicentrinone were obtained.
# 500 g of dried, ground root material Lindera oldhamu (megaphylla) Hemsl was extracted with 95% ethanol, and the extract was concentrated in vacuo and fractionated into ethanol- and ethylacetate-soluble fractions. The ethylacetate-soluble fraction was then applied to a column of silica gel and eight fractions were obtained.
# (§2) Means ± S.E.M. are presented. *: P < 0.05, **: P < 0.01, ***: P < 0.00
# (§3) as compared with the respective control. Concentration: arachidonic acid
# (100 μM), collagen (10 μg/ml), norepinephrine (NE, 3 μM), each
# (§4) At 6 min after the addition of inducer, indomethacin (50 μM) and EDTA (2 mM) were added to stop the reaction, and thromboxane B2 was assayed by RIA kits.
# (§5) (100 μM), collagen (10 ug/ml), thrombin (0.1 U/ml), dicentrine (150
# [3] = system: rats fed with high cholesterol and high fat diet; assay: Blood cholesterol and triglyceride in rats fed high cholesterol and high fat diet; type: in vivo, rat; details: for Cholesterol / Triglyceride: high cholesterol & fat diet, dicentrine 10 mg/kg or prazosin 5 mg/kg, oral twice a day in last week; for Cholesterol: diet control 120 ± 7.1, normal diet 62 ± 4.5; for Triglyceride: diet control 305 ± 11.1, normal diet 84 ± 5.4
# anesthetized rats = assay: Systemic hemodynamic parameters of pentobarbital-anesthetized rats; type: in vivo, rat; details: for Blood flow: before 7 ± 4; for total peripheral resistance: dicentrine 1.0 mg/kg, prazosin 0.1 mg/kg
# [4] = system: Thromboxane B2 formation in washed rabbit platelets; assay: Thromboxane B2 formation in washed rabbit platelets (RIA); type: cell-based; details: for Thromboxane B2: dicentrine 150 μM
# Protocol: as §4, §2, §3, §5
# [5] = system: conscious spontaneously hypertensive (SH) and normotensive (NT) rats; assay: Mean arterial pressure in conscious spontaneously hypertensive (SH) and normotensive (NT) rats; type: in vivo, rat
# rat thoracic aortae = assay: Norepinephrine-induced contraction of rat thoracic aortae (phasic and tonic); details: in words
# [6] = system: isolated thoracic aorta of rats fed with high cholesterol and high fat diet; assay: Contractile force of isolated thoracic aorta from rats fed high cholesterol and high fat diet; type: in vivo, rat; details: for contractile force: high cholesterol & fat diet, dicentrine 10 mg/kg, prazosin 5 mg/kg
# rat ventricular cells = assay: Action potential of rat ventricular cells; type: cell-based; details: for Tp (time to peak) / APD50 (action potential duration at 50% repolarization) / AP amplitude (initial upstroke amplitude): 3 μM; for Tp (time to peak): control 5.0 ± 0.5 (dicentrine), 5.3 ± 0.5 (quinidine); for APD50 (action potential duration at 50% repolarization): control 59.9 ± 11.3 (dicentrine), 62.6 ± 3.9 (quinidine); for AP amplitude (initial upstroke amplitude): control 138.3 ± 2.6 (dicentrine), 135.2 ± 2.2 (quinidine)
# Description: as §1
# The effects of dicentrine and quinidine on action potential were compared and studied in rat ventricular cells. […] In addition to the prolongation of APD50, a depression of initial upstroke amplitude from 138.3±2.6 mV to 125.5±4.5 mV and prolongation of the time to peak amplitude from 5.0±0.5 msec to 10.0±1.9 msec were observed.
# Means ± S.E.M. are presented. *: P < 0.05 as compared with the
# APD50 : action potential duration measured at 50% repolarization fro
# Tp : time to peak measured from the start of depolarization to the
# Concentration: dicentrine (3 μM), quinidine (3 μM).
# [7] = oral twice a day (10 mg/kg) in the last week, in words
# [8] = pentobarbital-anesthetized rats, in words
smiles,measurement,setting,value
COc1cc2c(cc1OC)-c1c3c(cc4c1[C@H](C2)N(C)CC4)OCO3 [dicentrine],contraction of guinea-pig trachea caused by histamine or carbachol,guinea-pig trachea,slightly inhibited
same,β-adrenoceptor relaxation to isoprenaline in trachea,guinea-pig trachea,not affected
same,"α1-adrenoceptor antagonism, relative potency","[1]; comparison with prazosin, yohimbine and phentolamine",less potent than prazosin; also recorded: much more potent than phentolamine or yohimbine
same,effects in denuded aortae,[1]; denuded aortae,still persisted
same,norepinephrine- or phenylephrine-induced vasoconstriction of rat aortae,[1]; in words,competitive antagonism
same,calcium current,[2],less affected
same,fast sodium inward current,[2],inhibition
same,steady state outward current,[2],significant inhibition
same,transient outward current,[2],significant inhibition
same,"aortic contraction induced by U-46619, angiotensin II, high potassium or carbachol",rat thoracic aorta,did not affect
same,aggregation of washed rabbit platelets,"washed rabbit platelets; induced by arachidonic acid and collagen, in words",inhibited
same,Aggregation (%),"washed rabbit platelets; inducer arachidonic acid 100 μM, control 92 ± 1",11 ± 7%
same,Aggregation (%),"washed rabbit platelets; inducer collagen 10 ug/ml, control 94 ± 1",51 ± 7%
same,Aggregation (%),"washed rabbit platelets; inducer thrombin 0.1 U/ml, control 95 ± 2",92 ± 2%
same,serum triglyceride level,"[3]; cholesterol-triglyceride-rich diet, in words",decreased
same,Cholesterol,[3],112 ± 4.6 mg/dL
same,Triglyceride,[3],108 ± 4.3 mg/dL
same,blood cholesterol level,[3]; [7],unchanged
same,triglyceride level,[3]; [7],restored to normal levels
same,Blood flow,anesthetized rats; after dicentrine 1.0 mg/kg,200 ± 27
same,CO,"anesthetized rats; after dicentrine 1.0 mg/kg, before 21 ± 2",25 ± 4 mL/min
same,MAP,"anesthetized rats; after dicentrine 1.0 mg/kg, before 122 ± 5",62 ± 5 mm Hg
same,HR,"anesthetized rats; after dicentrine 1.0 mg/kg, before 353 ± 10",348 ± 8 bpm
same,hypotensive activity after α1-adrenoceptor blockade,anesthetized rats; after α1-adrenoceptor blockade,completely abolished
same,mean arterial blood pressure,"anesthetized rats; anesthetized rats, i.v. bolus 0.1-1.0 mg/kg",dose-related reduction
same,duration of reduction in mean arterial blood pressure,"anesthetized rats; anesthetized rats, i.v. bolus 0.1-1.0 mg/kg, throughout observation period",≥ 2 h
same,total peripheral resistance,anesthetized rats,reduction
same,cardiac output (CO),anesthetized rats; [8],little or no change
same,"heart rate (HR), or stroke volume (SV)",anesthetized rats; [8],no change
same,mean arterial pressure (MAP),anesthetized rats; [8],decrease
same,Thromboxane formations,"[4]; caused by arachidonic acid, collagen and thrombin, in words",all suppressed
same,Thromboxane B2,"[4]; inducer arachidonic acid 100 μM, control 445 ± 44",19 ± 15 ng/10^8 platelets
same,Thromboxane B2,"[4]; inducer collagen 10 ug/ml, control 478 ± 93",70 ± 5 ng/10^8 platelets
same,Thromboxane B2,"[4]; inducer thrombin 0.1 U/ml, control 131 ± 25",44 ± 14 ng/10^8 platelets
same,mean arterial pressure,[5]; conscious SH and NT rats,dose-related decreases in mean arterial pressure which were of a greater magnitude in SH rats than in NT rats
same,duration of hypotensive effect,"[5]; oral administration, conscious SH rats",over 15 hr
same,vasorelaxant activity in rat thoracic aorta,rat thoracic aortae,most potent vasorelaxant
same,contractile force of aorta,"[6]; cholesterol-triglyceride-treated rats, in words",restored the contractile force of cholesterol-triglyceride-treated rat aortae back to normal values
same,maximal contractile force of isolated thoracic aorta,[6]; [7],restored to normal range
same,contractile force,[6]; phenylephrine 3 × 10^-6 M,0.75 ± 0.12 g
same,contractile force,[6]; phenylephrine 3 × 10^-7 M,0.55 ± 0.07 g
same,contractile force,[6]; phenylephrine 3 × 10^-8 M,0.22 ± 0.05 g
same,contractile force,[6]; phenylephrine 10^-6 M,0.67 ± 0.11 g
same,contractile force,[6]; phenylephrine 10^-7 M,0.55 ± 0.07 g
same,Tp (time to peak),rat ventricular cells,10.0 ± 1.9 ms
same,Tp (time to peak),rat ventricular cells; listed as Dicentrine,10.0 ± 1.9 ms
same,APD50 (action potential duration at 50% repolarization),rat ventricular cells,201.9 ± 28.7 ms
same,APD50 (action potential duration at 50% repolarization),rat ventricular cells; listed as Dicentrine,201.9 ± 28.7 ms
same,AP amplitude (initial upstroke amplitude),rat ventricular cells,125.5±4.5 mV
same,AP amplitude (initial upstroke amplitude),rat ventricular cells; listed as Dicentrine,125.5 ± 4.5 mV
same,action potential,rat ventricular cells; stimulation frequency 0.1 Hz,prolonged
same,initial upstroke amplitude,rat ventricular cells; stimulation frequency 0.1 Hz,reduced
same,time to peak,rat ventricular cells; stimulation frequency 0.1 Hz,increased
"COc1cc2nc(N3CCN(C(=O)c4ccco4)CC3)nc(N)c2cc1OC [prazosin, reference compound]",Cholesterol,[3],112 ± 3.9 mg/dL
same,Triglyceride,[3],114 ± 9.2 mg/dL
same,Blood flow,anesthetized rats; after prazosin 0.1 mg/kg,171 ± 14
same,CO,"anesthetized rats; after prazosin 0.1 mg/kg, before 27 ± 3",32 ± 3 mL/min
same,MAP,"anesthetized rats; after prazosin 0.1 mg/kg, before 120 ± 4",68 ± 6 mm Hg
same,HR,"anesthetized rats; after prazosin 0.1 mg/kg, before 367 ± 9",337 ± 10 bpm
same,total peripheral resistance,anesthetized rats,reduction
same,cardiac output (CO),anesthetized rats; [8],little or no change
same,mean arterial pressure (MAP),anesthetized rats; [8],decrease
same,contractile force,[6]; phenylephrine 3 × 10^-6 M,0.87 ± 0.12 g
same,contractile force,[6]; phenylephrine 3 × 10^-7 M,0.70 ± 0.09 g
same,contractile force,[6]; phenylephrine 3 × 10^-8 M,0.30 ± 0.05 g
same,contractile force,[6]; phenylephrine 10^-6 M,0.80 ± 0.12 g
same,contractile force,[6]; phenylephrine 10^-7 M,0.51 ± 0.08 g
"C=C[C@H]1C[N@@]2CC[C@H]1C[C@@H]2[C@@H](O)c1ccnc2ccc(OC)cc12 [quinidine, reference compound]",Tp (time to peak),rat ventricular cells,10.8 ± 2.4 ms
same,APD50 (action potential duration at 50% repolarization),rat ventricular cells,276.0 ± 18.6 ms
same,AP amplitude (initial upstroke amplitude),rat ventricular cells,121.2 ± 2.3 mV
